In patent US12233100B1, “Composition for improving respiratory health of companion animals” (priority 2024, dated 2025):

Tested on: IgE
Assay: IgE content in the serum (ELISA)
Type: in vivo
Conditions: positive control group, 30 mg/kg
Procedure: In order to measure IgE content in the serum, enzyme-linked immunosorbent assay (ELISA) (an antigen-antibody amount measurement method) kit was used. 100 μl of each of the standard solution and the serum entered each well, was reacted at 4° C. for 10 hours using a rotary agitator and then washed 4 times with a washing solution.
After completely removing the washing solution, 100 μl of a detection antibody entered each well, followed by rotational-agitation at room temperature for 1 hour and then washing the same 4 times with the washing solution. After washing, 100 μl of HRP-Streptavidin (enzyme activity and adsorption protein) solution entered each well, followed by rotational-agitation at room temperature for 45 minutes and then washing the same with 1× washing solution. Further, 100 μl of TMB One-step detection reagent entered each well, followed by rotational-agitation in a dark room for 30 minutes, and then, treatment with 50 μl of a reaction stopping reagent. Then, the absorbance was measured at […], compared to IgE standard curve to convert a content (pg/ml).

Question: With CC(C)(O)c1ccccc1CC[C@@H](SCC1(CC(=O)O)CC1)c1cccc(/C=C/c2ccc3ccc(Cl)cc3n2)c1 [monteluksat, montelukast] as the molecule, how does the “IgE content in the serum” value read?
Answer: Its value is 347 pg/mL.
